From ChEMBL document CHEMBL6134843, “HDAC11 Inhibition as a Potential Therapeutic Strategy for AML: Target Identification, Lead Discovery, Antitumor Potency, and Mechanism Investigation” (J Med Chem, 2025)
The source made the active and inactive calls. The calls are words filed in the database; no cut-off is given here.

Experiments:
[1] = tested on: Acute myeloid leukemic cell; assay: Induction of ferroptosis in human Acute myeloid leukemic cells assessed as upregulation of TF mRNA level by RT-qPCR analysis; assay type: functional, cell-based
U-937 [2] = assay: Upregulation of Nrf2 transcription level in human U-937 cells by RNA-seq analysis; assay type: functional, cell-based
U-937 [3] = assay: Antiproliferative activity in human U-937 cells assessed as suppression of cell growth at 10 uM in presence of Zinc protoporphyrin by trypan blue staining based analysis; assay type: functional
OCI-AML2 [4] = assay: Induction of ferroptosis in human OCI-AML2 cells assessed as increase in malondialdehyde level at 5 uM incubated for 48 hrs in presence of ferrostatin-1; assay type: functional, cell-based
[5] = Toxicity in female C57BL/6 mouse model assessed as increase in survival rate at 50 mg/kg, ip administered once daily in presence of cytarabine by Kaplan Mayer survival analysis; assay type: organism-based; conditions: in vivo
U-937 [6] = assay: Induction of ferroptosis in human U-937 cells assessed as increase in cellular ROS accumulation at 10 uM in presence of Zinc protoporphyrin by flow cytometry analysis; assay type: functional, cell-based
MLL-AF9 = assay: Antitumor activity against mouse MLL-AF9 cells allografted in female C57BL/6 mouse model assessed as reduction in hepatomegaly at 50 mg/kg, ip administered once daily for 23 days; assay type: functional, organism-based; conditions: time 23.0 day
OCI-AML2 [7] = assay: Induction of cell differentiation in human OCI-AML2 cells assessed as increase in CD11b expression at 5 uM incubated for 48 hrs by flow cytometry analysis; assay type: functional, cell-based
U-937 [8] = assay: Induction of cell differentiation in human U-937 cells assessed as increase in CD14 expression at 5 uM incubated for 48 hrs by flow cytometry analysis; assay type: functional, cell-based
OCI-AML-3 = assay: Antiproliferative activity against human OCI-AML-3 cells assessed as cell growth inhibition incubated for 2 days by CCK-8 assay; conditions: OCI-AML-3, 48 h
[9] = molecular target: Keap1/Nrf2 (Homo sapiens) (UniProt Q16236+Q14145); assay: Activation of Keap1-Nrf2 signaling pathway in human U-937 cells assessed as upregulation of HMOX1 at 5 uM in presence of K67 by Western blot analysis; assay type: cell-based
Keap1/Nrf2 (Homo sapiens), sequence (Q14145 whole entry, looked up): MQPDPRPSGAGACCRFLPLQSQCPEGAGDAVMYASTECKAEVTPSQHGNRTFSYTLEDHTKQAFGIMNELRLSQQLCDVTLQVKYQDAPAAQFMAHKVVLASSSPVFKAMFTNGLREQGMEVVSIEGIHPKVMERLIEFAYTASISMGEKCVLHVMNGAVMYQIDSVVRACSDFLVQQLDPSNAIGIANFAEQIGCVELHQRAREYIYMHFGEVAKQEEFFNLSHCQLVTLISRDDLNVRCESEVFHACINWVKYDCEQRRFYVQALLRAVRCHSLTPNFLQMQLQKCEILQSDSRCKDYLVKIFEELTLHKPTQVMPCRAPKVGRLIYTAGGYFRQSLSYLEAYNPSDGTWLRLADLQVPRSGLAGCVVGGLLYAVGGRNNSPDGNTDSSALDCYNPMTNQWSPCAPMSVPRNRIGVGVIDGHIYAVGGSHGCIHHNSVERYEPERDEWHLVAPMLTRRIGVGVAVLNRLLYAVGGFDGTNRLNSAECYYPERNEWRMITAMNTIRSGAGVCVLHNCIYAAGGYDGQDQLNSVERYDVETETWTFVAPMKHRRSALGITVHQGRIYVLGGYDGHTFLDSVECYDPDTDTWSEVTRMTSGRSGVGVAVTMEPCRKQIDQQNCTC
Keap1/Nrf2 (Homo sapiens), sequence (Q16236 whole entry, looked up): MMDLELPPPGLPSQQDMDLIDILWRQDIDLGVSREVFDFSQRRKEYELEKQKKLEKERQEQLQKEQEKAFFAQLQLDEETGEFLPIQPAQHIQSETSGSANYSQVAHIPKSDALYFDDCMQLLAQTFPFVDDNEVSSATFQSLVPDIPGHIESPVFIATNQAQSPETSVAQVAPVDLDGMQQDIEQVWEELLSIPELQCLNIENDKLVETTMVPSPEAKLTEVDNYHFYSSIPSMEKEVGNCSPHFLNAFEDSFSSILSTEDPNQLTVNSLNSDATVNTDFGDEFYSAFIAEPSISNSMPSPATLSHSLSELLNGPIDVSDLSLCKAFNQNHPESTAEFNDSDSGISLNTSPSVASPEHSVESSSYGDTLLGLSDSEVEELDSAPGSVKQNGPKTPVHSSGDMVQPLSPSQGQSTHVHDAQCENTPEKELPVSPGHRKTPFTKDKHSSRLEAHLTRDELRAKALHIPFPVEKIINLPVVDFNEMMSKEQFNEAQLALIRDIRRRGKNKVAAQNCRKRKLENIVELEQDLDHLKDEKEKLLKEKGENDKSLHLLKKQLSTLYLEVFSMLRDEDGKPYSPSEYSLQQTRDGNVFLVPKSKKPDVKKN

OCI-AML2 [10] = assay: Induction of ferroptosis in human OCI-AML2 cells assessed as increase in lipid peroxidation accumulation at 5 uM incubated for 48 hrs in presence of ferrostatin-1 by C11-BODIPY 581/591 staining based flow cytometry analysis; assay type: functional, cell-based
[11] = tested on: Acute myeloid leukemic cell; assay: Induction of ferroptosis in human Acute myeloid leukemic cells assessed as upregulation of TFRC protein level at 2.5 to 10 uM by Western blot analysis; assay type: functional, cell-based; conditions: dose 2.5-10 µM
[12] = Half life in ICR(CD-1) mouse at 50 mg/kg, ip treated up to 24 hrs by LC-MS/MS analysis; assay type: ADME, organism-based; conditions: in vivo
U-937 [13] = assay: Induction of ferroptosis in human U-937 cells assessed as increase in ferrous ion accumulation at 100 uM incubated for 48 hrs by RhoNox-1 staining based flow cytometry analysis; assay type: functional, cell-based
U-937 [14] = assay: Effect on DDIT3 gene expression in human U-937 cells at 10 uM incubated for 48 hrs by RT-qPCR; assay type: functional, cell-based
[15] = tested on: Acute myeloid leukemic cell; assay: Induction of ferroptosis in human Acute myeloid leukemic cells assessed as increase in ACSL4 level by Western blot analysis; assay type: functional, cell-based
[16] = Half life in ICR(CD-1) mouse at 5 mg/kg, iv treated up to 24 hrs by LC-MS/MS analysis; assay type: ADME, organism-based; conditions: in vivo
U-937 [17] = assay: Induction of ferroptosis in human U-937 cells assessed as increase in lipid peroxidation accumulation at 5 uM incubated for 48 hrs in presence of ferrostatin-1 by C11-BODIPY 581/591 staining based flow cytometry analysis; assay type: functional, cell-based
U-937 [18] = assay: Induction of ferroptosis in human U-937 cells assessed as increase in lipid peroxidation at 10 uM in presence of Zinc protoporphyrin by flow cytometry analysis; assay type: functional, cell-based
U-937 [19] = assay: Effect on CCND2 gene expression in human U-937 cells at 10 uM incubated for 48 hrs by RT-qPCR; assay type: functional, cell-based
OCI-AML2 [20] = assay: Induction of ferroptosis in human OCI-AML2 cells assessed as increase in malondialdehyde level at 5 uM incubated for 48 hrs; assay type: functional, cell-based
U-937 [21] = assay: Induction of ferroptosis in human U-937 cells assessed as increase in cellular ROS level incubated for 48 hrs by DCFH-DA staining based flow cytometry analysis; assay type: functional, cell-based; conditions: dose 2.5-10 µM
[22] = Volume of distribution at steady state in ICR(CD-1) mouse at 5 mg/kg, iv treated up to 24 hrs by LC-MS/MS analysis; assay type: ADME, organism-based; conditions: in vivo, read-out: Vdss
[23] = Clearance in ICR(CD-1) mouse at 5 mg/kg, iv treated up to 24 hrs by LC-MS/MS analysis; assay type: ADME, organism-based; conditions: in vivo
[24] = Antitumor activity against mouse MLL-AF9 cells allografted in female C57BL/6 mouse model assessed as GFP positive leukemic cells in peripheral blood at 50 mg/kg, ip administered once daily for 32 days by FITC staining based analysis (reference value: 72.5 %); assay type: functional; conditions: time 32 day
OCI-AML2 [25] = assay: Induction of cell apoptosis in human OCI-AML2 cells incubated for 48 hrs by Annexin V/DAPI staining based flow cytometry analysis; assay type: functional; conditions: dose 2.5-10 µM
[26] = AUC (0 to infinity) in ICR(CD-1) mouse at 50 mg/kg, ip treated up to 24 hrs by LC-MS/MS analysis; assay type: ADME, organism-based; conditions: in vivo
OCI-AML2 [27] = assay: Induction of ferroptosis in human OCI-AML2 cells assessed as increase in cellular ROS level incubated for 48 hrs by DCFH-DA staining based flow cytometry analysis; assay type: functional, cell-based; conditions: dose 2.5-10 µM
U-937 [28] = assay: Induction of cell differentiation in human U-937 cells assessed as increase in CD11b expression at 5 uM incubated for 48 hrs by flow cytometry analysis; assay type: functional, cell-based
[29] = Toxicity in female C57BL/6 mouse assessed as increase in survival rate at 50 mg/kg, ip administered once daily by Kaplan Mayer survival analysis; assay type: organism-based; conditions: in vivo
[30] = Antitumor activity against mouse MLL-AF9 cells allografted in female C57BL/6 mouse model assessed as GFP positive leukemic cells in peripheral blood at 50 mg/kg, ip administered once daily for 32 days in presence of cytarabine by FITC staining based analysis (reference value: 72.5 %); assay type: functional; conditions: time 32 day
U-937 [31] = assay: Effect on WT1 gene expression in human U-937 cells at 10 uM incubated for 48 hrs by RT-qPCR; assay type: functional, cell-based
[32] = tested on: Acute myeloid leukemic cell; assay: Induction of ferroptosis in human Acute myeloid leukemic cells assessed as upregulation of TFRC mRNA level by RT-qPCR analysis; assay type: functional, cell-based
[33] = Toxicity in female C57BL/6 mouse model assessed as change in body weight at 50 mg/kg, ip administered once daily in presence of cytarabine; assay type: organism-based; conditions: in vivo
U-937 [34] = assay: Cytotoxicity against human U-937 cells assessed as cell growth inhibition at 5 uM incubated for 24 to 48 hrs by cell counting assay; assay type: functional, cell-based; conditions: time 24-48 hrs
OCI-AML2 [35] = assay: Induction of cell cycle arrest in human OCI-AML2 cells assessed as accumulation of cells at G1 phase at 5 uM incubated for 48 hrs by EdU/DAPI staining based flow cytometry analysis; assay type: functional
U-937 [36] = assay: Induction of ferroptosis in human U-937 cells assessed as increase in ferrous ion accumulation incubated for 48 hrs by RhoNox-1 staining based flow cytometry analysis; assay type: functional, cell-based; conditions: dose 2.5-10 µM

With `O=C(NO)c1cccc2[nH]c(C#Cc3cccc(C(F)(F)F)c3)cc12` the Activity [1] was “Active”, the Activity (U-937 [2]) was “inactive” and the Activity (U-937 [3]) was “inactive”. For the same compound, the Activity (OCI-AML2 [4]) was “inactive”, the Activity [5] was “Non-toxic” and the Activity (U-937 [6]) was “Active”. For the same compound, the Activity (MLL-AF9) was “Active”, the Activity (OCI-AML2 [7]) was “Active” and the Activity (U-937 [8]) was “Active”. For the same compound, the IC50 (OCI-AML-3) was ≤ 10 µM, the Activity [9] was “inactive” and the Activity (OCI-AML2 [10]) was “inactive”. For the same compound, the Activity [11] was “Active”, the half-life [12] was 8.95 h and the Activity (U-937 [13]) was “Active”. For the same compound, the Activity (U-937 [14]) was “Active”, the Activity [15] was “Active” and the half-life [16] was 0.82 h. For the same compound, the Activity (U-937 [17]) was “inactive”, the Activity (U-937 [18]) was “Active” and the Activity (U-937 [19]) was “Active”. For the same compound, the Activity (OCI-AML2 [20]) was “Active”, the Activity (U-937 [21]) was “Dose-dependent-effect” and the Vd [22] was 10.2 L/kg. The clearance [23] was 134 mL/min/kg, the Activity [24] was 17.2% and the Activity (OCI-AML2 [25]) was “Dose-dependent-effect”. The AUC(0-inf) [26] was 2000 ng·h/mL, the Activity (OCI-AML2 [27]) was “Dose-dependent-effect” and the Activity (U-937 [28]) was “Active”. The Activity [29] was “Non-toxic”, the Activity [30] was 4.3% and the Activity (U-937 [31]) was “Active”. The Activity [32] was “Active”, the Activity [33] was “Non-toxic” and the Activity (U-937 [34]) was “Active”. The Activity (OCI-AML2 [35]) was “Dose-dependent-effect” and the Activity (U-937 [36]) was “Dose-dependent-effect”.
